Assay results as given in patent US11142527B2, “Dihydropyrimidine compounds and uses thereof in medicine” (SUNSHINE LAKE PHARMA CO., LTD., priority 2017, dated 2021).
pEC50, pIC50: −log10 of the molar value.

Columns and labels:
[1] = system: HBV; conditions: Science, 2003, 299, 893-896; cited from earlier work
[2] = Cytotoxicity test with CellTiter Glo; type: cell-based; conditions: human, HepG2.2.15 cells, highest concentration 150 μM, read-out: CC50 values of the compounds of the invention
Method in brief: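 HepG2.2.15 cells (3000/well) exposed to serially diluted compound, highest final concentration 150 μM, for 4 days at 37 °C. Viability read by CellTiter Glo, cytotoxicity % taken relative to DMSO controls, and CC50 obtained by four-parameter nonlinear regression.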

[3] = system: HBV; assay: Test of anti HBV activity in vitro (viral DNA by qPCR); type: cell-based; conditions: Hepatitis B virus; HepG2.2.15 cells, viral DNA in cell culture supernatant by qPCR; read-out: EC50 values of the compound of the invention on viral replication
Method in brief: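 HepG2.2.15 cells (integrated HBV genome) were grown to confluence, then treated with compound in 4-fold dilutions from 4 μM final (0.5% DMSO). Secreted viral DNA in supernatant was quantified by SYBR qPCR against an HBV plasmid standard curve; EC50 from four-parameter nonlinear regression of concentration versus copy number.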

SMILES	pIC50 [1]	CC50 at 4 days [2] [nM]	pEC50 [3]
Nc1ccn([C@@H]2CS[C@H](CO)O2)c(=O)n1 [lamivudine]	6.52		
COC(=O)C1=C(CN2CCN3C(=O)N(c4nc(-c5ccc(C(=O)O)cc5F)cs4)C[C@@H]3C2)NC(c2nccs2)=N[C@H]1c1ccc(F)cc1Cl [Example 136, 4-(2-((S)-7-(((R)-6-(2-chloro-4-fluorophenyl)-5-(methoxycarbonyl)-2-(thiazol-2-yl)-3,6-dihydropyrimidin-4-yl)methyl)-3-oxohexahydroimidazo[1,5-a]pyrazin-2(3H)-yl)thiazol-4-yl)-3-fluorobenzoic acid]		> 150000	7.70
COC(=O)C1=C(CN2CCN3C(=O)N(CCC#Cc4ccc(C(=O)O)cc4)C[C@@H]3C2)NC(c2nccs2)=N[C@H]1c1ccc(F)cc1Cl [Example 54, 4-(4-((S)-7-(((R)-6-(2-chloro-4-fluorophenyl)-5-(methoxycarbonyl)-2-(thiazol-2-yl)-3,6-dihydropyrimidin-4-yl)methyl)-3-oxohexahydroimidazo[1,5-a]pyrazin-2(3H)-yl)but-1-yn-1-yl)benzoic acid]		> 150000	7.21
COC(=O)C1=C(CN2CCN3C(=O)N(c4ccc(Sc5ccc(C(=O)O)cc5)cc4)C[C@@H]3C2)NC(c2nccs2)=N[C@H]1c1ccc(F)cc1Cl [Example 91, 4-((4-((S)-7-(((R)-6-(2-chloro-4-fluorophenyl)-5-(methoxycarbonyl)-2-(thiazol-2-yl)-3,6-dihydropyrimidin-4-yl)methyl)-3-oxohexahydroimidazo[1,5-a]pyrazin-2(3H)-yl)phenyl)thio)benzoic acid]		> 150000	7.42
COC(=O)C1=C(CN2CCN3C(=O)N(c4ccc(-c5ccc(C(C)(C)C(=O)O)cc5)cn4)C[C@@H]3C2)NC(c2nccs2)=N[C@H]1c1ccc(F)cc1Cl [Example 19, 2-(4-(6-((S)-7-(((R)-6-(2-chloro-4-fluorophenyl)-5-(methoxycarbonyl)-2-(thiazol-2-yl)-3,6-dihydropyrimidin-4-yl)methyl)-3-oxohexahydroimidazo[1,5-a]pyrazin-2(3H)-yl)pyridin-3-yl)phenyl)-2-methylpropionic acid]		> 150000	7.85
